{
  "source": "patent EP0705591A2",
  "about": "“Cyclic amidocarboxy surfactants, synthesis and use thereof” (STEPAN COMPANY, priority 1989, dated 1991)",
  "format_in_all_cases": "physicochemical",
  "key": {"[1]": {"assay": "Emulsion stability test (modified, xylene/water)", "details": "0.5g surfactant, 90 mL deionized water, 5.0 mL xylene; second rocking sequence", "protocol": "In order to obtain reproducible results, an emulsion stability test, modified from the standard used in the art for testing surfactants was developed. In the modified procedure, 0.5g of a select surfactant (instead of 1g) was dissolved in 90 mL of deionized water in a graduated cylinder containing 5.0 mL of xylene, which was then sealed and rocked between a vertical/horizontal position for 30 cycles, allowed to settle for about 5 to 10 minutes and subjected to the same rocking cycle with the results of the second sequence recorded (instead of the first sequence)."}, "[2]": {"assay": "Bleach (chlorine ion) stability", "details": "for formulation clarity / foaming characteristics: 2.0% actives surfactant, 4.0% actives NaOCl; for formulation clarity: 1.0% NaOH, 90°C water bath about 5 hours; for foaming characteristics: after about 5 hours at 90°C", "text": "Select N-alkyl and N,N-dialkyl phthalamates were incorporated into a standard test formulation containing a common bleach. […] The standard formulation comprised 4.0% actives of NaOCl; 0.25% actives NaCl; 1.0% actives NaOH (50%); 2.0% actives surfactant and Q.S. 100% deionized water. 1. DOWFAX^R-2A1 is Dow Chemical Company's registered trademark for sodium branched C₁₂ diphenyloxide disulfonate. 2. MAKON^R- 10 is Stepan Company's registered trademark for a nonylphenol polyethoxylate.\nThe various formulations were individually placed in tightly capped jars and subjected to a 90°C water bath for about 5 hours and then observed for formulation clarity and foaming characteristics. Each sample was run in duplicate."}, "[3]": {"assay": "Crude oil emulsification/dispersion and pH reversibility", "protocol": "Sodium N-dodecylphthalamate, sodium N-cocophthalamate, sodium N-isodecyloxypropylphthalamate and sodium N-isododecyloxypropylphthalamate, along with a control (tap water only), were evaluated as emulsifying and/or dispersing and/or suspending agents for a given, heavy (viscous) crude petroleum oil (Dome crude oil, David Field, California) in different water samples, one having a hardness (expressed as CaCO₃) of 150 ppm, another having a hardness of 500 ppm, along with a synthetic sea water (NaCl-containing tap water, 150 ppm). In addition, various admixtures of sodium N-dodecylphthalamate and lauryl amine oxide were similarly evaluated with the above petroleum crude oil and synthetic sea water for synergistic emulsification characteristics.\nThe respective surfactants were prepared as aqueous solutions with the various water samples at a concentration of about 0.1 percent actives. Measured samples (50 mL) of the surfactant solutions were placed in 100 mL graduated cylinders, 2 drops of the crude oil added, the cylinders stoppered and relatively vigorously shaken manually for about 10 to 20 seconds. The degree of emulsification/dispersion, suspension was noted and recorded The data is set for in Table VIII below.\nAt relatively high pH values (i.e., above about 7) emulsification of the crude oil readily occurred and at relatively how pH values (i.e., below about 5) de-emulsification of the crude oil readily occurred. A control was prepared from a sample of the 150 ppm hardness water without surfactant but with 2 drops of the above crude oil.\nThe foregoing cycle between relatively high pH and relatively low pH was repeated an additional three times, with essentially identical emulsification/de-emulsification results. During a low (4.9) pH de-emulsification cycle, separated crude oil was removed, by decantation and a pH of the remaining (used) phthalamic solution was adjusted to about 13.5 and fresh crude oil added. […] Upon addition of additional fresh sodium N-dodecylphthalamate, the emulsion re-formed."}, "[4]": {"assay": "Thermal stability followed by IR spectroscopy", "details": "for Conversion to the N-dodecylphthalimide: neat (100% actives), about 100°C", "protocol": "Thermal stability studies were conducted with neat (100% actives) sample of ammonium N-dodecylphthalamate mulled on sodium chloride plates. […]"}, "[5]": {"assay": "Caustic stability (reflux with NaOH)", "details": "for ES*(mL/sec) (Emulsion Stability): reflux with an equivalent of NaOH", "protocol": "In order to determine caustic stability of the phthalamates, 5g of octylphthalamic acid was dissolved in 450 mL of water containing an equivalent of NaOH. This mixture was heated at reflux for about 24 hours and five separate 90mL samples were withdrawn at 0 hours, 1 hour, 2 hours, 16.5 hours and 23.7 hours. The resulting individual samples were acidified and the sodium N-octylphthalamic acid was isolated and analyzed (filtered, dried, weighted and m.p. and neutralization equivalents were obtained)."}, "[6]": {"assay": "Particulate material suspension", "protocol": "In this test, potassium N-octadecylphthalamate was utilized as a suspending agent in a typical shampoo base with known particulate anti-dandruff materials, zinc pyrithione and coal tar. Particulate (about 500 mesh) zinc pyrithione and particulate (about 350 to 400 mesh) coal tar were suspended in shampoo base formulations and stored at room temperature, at about 1.6°C and at about 43.3°C.\nAbout 2 percent potassium octadecylphthalamate was incorporated with about 50 to 70 percent particulate coal (average size about 200 mesh) and about 30 to 50 percent water at ambient temperature."}, "[7]": {"assay": "Ross-Miles Foaming test", "details": "tap water; active level of 0.1%", "text": "(§1) Standard Ross-Miles Foaming and Draves Wetting tests were preformed on various fatty phthalamates with the results set forth in Table 1 below. In all tests, an active level of 0.1% was utilized."}, "[8]": {"assay": "Draves Wetting test", "details": "tap water; active level of 0.1%", "text": "as §1"}, "[9]": {"details": "0.1% actives in 50 mL of 150 ppm hardness water"}},
  "data": [
    {"compound": "CCCCCCCCCCNC(=O)c1ccccc1C(=O)[O-].[Na+]", "note": "[Sodium N-decylphthalamate]", "values": [
      {"measurement": "Emulsion Break Rate", "setting": "[1]", "result": 0.034, "unit": "mL/s"}
    ]},
    {"compound": "CCCCCCCCCCCCNC(=O)c1ccccc1C(=O)[O-].[Na+]", "note": "[Sodium N-dodecylphthalamate, Sodium N-Dodecylphthalamate]", "values": [
      {"measurement": "formulation clarity", "setting": "[2]", "result": "initially clear yellow but became cloudy and exhibited phase separation"},
      {"measurement": "pH values at which de-emulsification of the crude oil readily occurred", "setting": "[3]; [9]", "result": "below 5"},
      {"measurement": "pH values at which emulsification of the crude oil readily occurred", "setting": "[3]; [9]", "result": "above 7"},
      {"measurement": "emulsification of crude oil", "setting": "[3]; 0.1% actives, 150 ppm hardness water, pH of 8.5", "result": "the oil readily emulsified"},
      {"measurement": "emulsification of crude oil", "setting": "[3]; pH dropped to about 3.5", "result": "the emulsion broke"},
      {"measurement": "emulsification of crude oil", "setting": "[3]; pH dropped to about 5.2", "result": "a slight flocculation noted"},
      {"measurement": "emulsification of crude oil", "setting": "[3]; pH dropped to about 7.0", "result": "without noticeable de-emulsification"},
      {"measurement": "emulsification of crude oil", "setting": "[3]; pH dropped with 1N HCl to about 2.6", "result": "the emulsion broke, almost instantly, with floccing"},
      {"measurement": "emulsification of crude oil", "setting": "[3]; pH raised with 1N NaOH to about 13.4", "result": "an emulsified solution was noted"},
      {"measurement": "emulsification of crude oil", "setting": "[3]; used solution, pH about 13.5, fresh crude oil added", "result": "very stabile emulsion was quickly formed"},
      {"measurement": "thermal stability", "setting": "[4]; 120°C", "result": "stabile"},
      {"measurement": "Emulsion Break Rate", "setting": "[1]", "result": 0.068, "unit": "mL/s"}
    ]},
    {"compound": "CCCCCCCCCCCCCCCCNC(=O)c1ccccc1C(=O)[O-].[Na+]", "note": "[Sodium N-hexadecylphthalamate]", "values": [
      {"measurement": "Emulsion Break Rate", "setting": "[1]", "result": 0.102, "unit": "mL/s"}
    ]},
    {"compound": "CCCCCCCCNC(=O)c1ccccc1C(=O)[O-].[Na+]", "note": "[Sodium N-octylphthalamate]", "values": [
      {"measurement": "pH at which stable", "setting": "[5]; caustic environment, reflux about 24 hours", "result": "at least 10"},
      {"measurement": "ES*(mL/sec) (Emulsion Stability)", "setting": "[5]; sample at 0 hr", "result": 0.0252, "unit": "mL/s"},
      {"measurement": "ES*(mL/sec) (Emulsion Stability)", "setting": "[5]; sample at 1 hr", "result": 0.0325, "unit": "mL/s"},
      {"measurement": "ES*(mL/sec) (Emulsion Stability)", "setting": "[5]; sample at 2 hr", "result": 0.0400, "unit": "mL/s"},
      {"measurement": "ES*(mL/sec) (Emulsion Stability)", "setting": "[5]; sample at 16.5 hr", "result": 0.0690, "unit": "mL/s"},
      {"measurement": "ES*(mL/sec) (Emulsion Stability)", "setting": "[5]; sample at 23.7 hr", "result": 0.108, "unit": "mL/s"},
      {"measurement": "Emulsion Break Rate", "setting": "[1]", "result": 0.111, "unit": "mL/s"}
    ]},
    {"compound": "CCCCCCCCCCCCCCNC(=O)c1ccccc1C(=O)[O-].[Na+]", "note": "[Sodium N-tetradecylphthalamate]", "values": [
      {"measurement": "Emulsion Break Rate", "setting": "[1]", "result": 0.085, "unit": "mL/s"}
    ]},
    {"compound": "CCCCCCCCCCNC(=O)c1ccccc1C(=O)O.OCCN(CCO)CCO", "note": "[Triethanolammonium N-decylphthalamate]", "values": [
      {"measurement": "Emulsion Break Rate", "setting": "[1]", "result": 0.046, "unit": "mL/s"}
    ]},
    {"compound": "CCCCCCCCCCCCNC(=O)c1ccccc1C(=O)O.OCCN(CCO)CCO", "note": "[Triethanolammonium N-dodeylphthalamate]", "values": [
      {"measurement": "Emulsion Break Rate", "setting": "[1]", "result": 0.039, "unit": "mL/s"}
    ]},
    {"compound": "CCCCCCCCNC(=O)c1ccccc1C(=O)O.OCCN(CCO)CCO", "note": "[Triethanolammonium N-octylphthalamate]", "values": [
      {"measurement": "Emulsion Break Rate", "setting": "[1]", "result": 0.043, "unit": "mL/s"}
    ]},
    {"compound": "CCCCCCCCCCCCNC(=O)c1ccccc1C(=O)O.N", "note": "[ammonium N-dodecylphthalamate, Ammonium N-Dodecylphthalamate]", "values": [
      {"measurement": "Conversion to the N-dodecylphthalimide", "setting": "[4]; 10 minutes", "result": "very apparent"},
      {"measurement": "Conversion to the N-dodecylphthalimide", "setting": "[4]; 20 minutes", "result": "almost total conversion"}
    ]},
    {"compound": "CCCCCCCCCCCCCCCCCCNC(=O)c1ccccc1C(=O)[O-].[K+]", "note": "[potassium N-octadecylphthalamate]", "values": [
      {"measurement": "suspension of particulate coal in water", "setting": "[6]; about 2 percent with about 50 to 70 percent coal (about 200 mesh), ambient temperature", "result": "free flowing, substantially homogeneous suspension"},
      {"measurement": "stability of zinc pyrithione suspension in shampoo base", "setting": "[6]; after 5 days at 43.3°C", "result": "phase separation"},
      {"measurement": "stability of coal tar suspension in shampoo base", "setting": "[6]; after 5 days at room temperature, at 1.6°C and at 43.3°C", "result": "excellent stability"}
    ]},
    {"compound": "CCCCCCCCCCCCN(C)C(=O)c1ccccc1C(=O)[O-].[Na+]", "note": "[sodium N-methyl-N-dodecylphthalamate, Sodium N-Dodecyl-N-methylphthalamate]", "values": [
      {"measurement": "formulation clarity", "setting": "[2]", "result": "clear yellow throughout the test"},
      {"measurement": "foaming characteristics", "setting": "[2]", "result": "unstabile"},
      {"measurement": "bleach stability", "setting": "[2]; conclusion from the 90°C bleach test", "result": "good bleach stability"}
    ]},
    {"compound": "CC(C)CCCCCCCCCOCCCNC(=O)c1ccccc1C(=O)[O-].[Na+]", "note": "[sodium isododecyloxypropylphthalamate, Sodium N-Isododecyloxypropylphthalamate]", "values": [
      {"measurement": "foam height", "setting": "[7]", "result": 5.5, "unit": "cm"},
      {"measurement": "wetting time", "setting": "[8]", "result": 4.5, "unit": "s"}
    ]},
    {"compound": "sodium N,N-dicocophthalamate", "values": [
      {"measurement": "formulation clarity", "setting": "[2]", "result": "poor solubility, with phase separation"},
      {"measurement": "foaming characteristics", "setting": "[2]", "result": "no pre-bath or post-bath foam"}
    ]}
  ]
}
